Experimental data as given in ChEMBL document CHEMBL1201862, “PubChem BioAssay data set” (2004).
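1) Cells in 96-well plates. 2) Compound, 48 h, 5 concentrations. 3) Linear interpolation between surrounding doses. 4) Unreached endpoint = highest concentration. GI50 = concentration required for 50% inhibition of growth.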 Activity calls are given as the source filed them. Cut-off read from the data, not from the text of the source: active = GI50 up to about 1.1 µM and inactive = higher.

Key:
Assay in all cases: NCI tumour cell line growth inhibition, 48 h
[1] = system: SNB-78
[2] = system: SK-MEL-2
[3] = system: OVCAR-8
[4] = system: OVCAR-4
[5] = system: KM-20L2
[6] = system: Malme-3M
[7] = system: CAKI-1
[8] = system: M19-MEL
[9] = system: DMS-114
[10] = system: ACHN
[11] = system: OVCAR-3
[12] = system: SF-268
[13] = system: CCRF-CEM
[14] = system: MOLT-4
[15] = system: SR
[16] = system: XF498
[17] = system: SK-OV-3
[18] = system: KM12
[19] = system: COLO 205
[20] = system: HCT-116
[21] = system: NCI-H460
[22] = system: SF-539
[23] = system: A498
[24] = system: OVCAR-5
[25] = system: DLD-1
[26] = system: RPMI-8226
[27] = system: M14
[28] = system: HOP-92
[29] = system: TK-10
[30] = system: SNB-75
[31] = system: UACC-257
[32] = system: A549
[33] = system: RXF 631
[34] = system: RXF 393
[35] = system: U-251
[36] = system: HCC 2998
[37] = system: NCI-H23
[38] = system: IGROV-1
[39] = system: HCT-15
[40] = system: HOP-62
[41] = system: SF-295
[42] = system: SNB-19
[43] = system: DMS-273
[44] = system: SK-MEL-28
[45] = system: K562
[46] = system: UACC-62
[47] = system: HL-60
[48] = system: UO-31
[49] = system: HT-29
[50] = system: 786-0
[51] = system: NCI-H226
[52] = system: SK-MEL-5
[53] = system: SN12C
[54] = system: LXFL 529
[55] = system: LOX IMVI
[56] = system: SW-620
[57] = system: NCI-H522
[58] = system: EKVX

Cc1cc(C)nc(NS(=O)(=O)c2ccc(Nc3c4ccccc4nc4c(C(=O)N5CCN(CCOS(C)(=O)=O)CC5)ccc(Cl)c34)cc2)n1
GI50 [1]: > 100 µM (inactive)
GI50 [2]: > 100 µM (inactive)
GI50 [3]: > 100 µM (inactive)
GI50 [4]: > 100 µM (inactive)
GI50 [5]: > 100 µM (inactive)
GI50 [6]: > 100 µM (inactive)
GI50 [7]: > 100 µM (inactive)
GI50 [8]: > 100 µM (inactive)
GI50 [9]: > 100 µM (inactive)
GI50 [10]: > 100 µM (inactive)
GI50 [11]: > 100 µM (inactive)
GI50 [12]: > 100 µM (inactive)
GI50 [13]: > 100 µM (inactive)
GI50 [14]: > 100 µM (inactive)
GI50 [15]: > 100 µM (inactive)
GI50 [16]: > 100 µM (inactive)
GI50 [17]: > 100 µM (inactive)
GI50 [18]: > 100 µM (inactive)
GI50 [19]: > 100 µM (inactive)
GI50 [20]: > 100 µM (inactive)
GI50 [21]: > 100 µM (inactive)
GI50 [22]: > 100 µM (inactive)
GI50 [23]: > 100 µM (inactive)
GI50 [24]: > 100 µM (inactive)
GI50 [25]: > 100 µM (inactive)
GI50 [26]: > 100 µM (inactive)
GI50 [27]: 38 µM (inactive)
GI50 [28]: > 100 µM (inactive)
GI50 [29]: 54.1 µM (inactive)
GI50 [30]: > 100 µM (inactive)
GI50 [31]: > 100 µM (inactive)
GI50 [32]: > 100 µM (inactive)
GI50 [33]: > 100 µM (inactive)
GI50 [34]: > 100 µM (inactive)
GI50 [35]: > 100 µM (inactive)
GI50 [36]: > 100 µM (inactive)
GI50 [37]: > 100 µM (inactive)
GI50 [38]: > 100 µM (inactive)
GI50 [39]: > 100 µM
GI50 [40]: > 100 µM (inactive)
GI50 [41]: > 100 µM (inactive)
GI50 [42]: > 100 µM (inactive)
GI50 [43]: > 100 µM (inactive)
GI50 [44]: > 100 µM (inactive)
GI50 [45]: > 100 µM (inactive)
GI50 [46]: > 100 µM (inactive)
GI50 [47]: > 100 µM (inactive)
GI50 [48]: > 100 µM (inactive)
GI50 [49]: > 100 µM (inactive)
GI50 [50]: 43.7 µM (inactive)
GI50 [51]: > 100 µM (inactive)
GI50 [52]: > 100 µM (inactive)
GI50 [53]: > 100 µM (inactive)

O=C(CO[N+](=O)[O-])OCC(=O)c1ccccc1
GI50 [2]: > 100 µM (inactive)
GI50 [3]: > 100 µM (inactive)
GI50 [4]: > 100 µM (inactive)
GI50 [5]: > 100 µM (inactive)
GI50 [6]: > 100 µM (inactive)
GI50 [7]: > 100 µM (inactive)
GI50 [8]: > 100 µM (inactive)
GI50 [10]: > 100 µM (inactive)
GI50 [11]: > 100 µM (inactive)
GI50 [12]: > 100 µM (inactive)
GI50 [13]: > 100 µM (inactive)
GI50 [14]: > 100 µM (inactive)
GI50 [54]: > 100 µM (inactive)
GI50 [15]: > 100 µM (inactive)
GI50 [17]: > 100 µM (inactive)
GI50 [18]: > 100 µM (inactive)
GI50 [19]: > 100 µM (inactive)
GI50 [20]: > 100 µM (inactive)
GI50 [55]: > 100 µM (inactive)
GI50 [21]: > 100 µM (inactive)
GI50 [22]: > 100 µM (inactive)
GI50 [24]: > 100 µM (inactive)
GI50 [25]: > 100 µM (inactive)
GI50 [26]: > 100 µM (inactive)
GI50 [27]: > 100 µM (inactive)
GI50 [28]: > 100 µM (inactive)
GI50 [29]: > 100 µM (inactive)
GI50 [56]: > 100 µM (inactive)
GI50 [30]: > 100 µM (inactive)
GI50 [31]: > 100 µM (inactive)
GI50 [32]: > 100 µM (inactive)
GI50 [33]: > 100 µM (inactive)
GI50 [34]: > 100 µM (inactive)
GI50 [35]: > 100 µM (inactive)
GI50 [36]: > 100 µM (inactive)
GI50 [37]: > 100 µM (inactive)
GI50 [38]: > 100 µM (inactive)
GI50 [39]: > 100 µM
GI50 [40]: > 100 µM (inactive)
GI50 [41]: > 100 µM (inactive)
GI50 [42]: > 100 µM (inactive)
GI50 [43]: > 100 µM (inactive)
GI50 [44]: > 100 µM (inactive)
GI50 [45]: > 100 µM (inactive)
GI50 [47]: > 100 µM (inactive)
GI50 [48]: > 100 µM (inactive)
GI50 [49]: > 100 µM (inactive)
GI50 [50]: > 100 µM (inactive)
GI50 [57]: > 100 µM (inactive)
GI50 [51]: > 100 µM (inactive)
GI50 [58]: > 100 µM (inactive)
GI50 [53]: > 100 µM (inactive)

CCCc1onc(CCC(=O)N(Cc2ccccc2)Cc2ccccc2)c1CC
GI50 [1]: > 100 µM (inactive)
GI50 [2]: > 100 µM (inactive)
GI50 [4]: > 100 µM (inactive)
GI50 [5]: > 100 µM (inactive)
GI50 [6]: > 100 µM (inactive)
GI50 [7]: > 100 µM (inactive)
GI50 [8]: > 100 µM (inactive)
GI50 [9]: > 100 µM (inactive)
GI50 [10]: > 100 µM (inactive)
GI50 [11]: > 100 µM (inactive)
GI50 [12]: > 100 µM (inactive)
GI50 [13]: > 100 µM (inactive)
GI50 [14]: > 100 µM (inactive)
GI50 [54]: > 100 µM (inactive)
GI50 [16]: > 100 µM (inactive)
GI50 [17]: > 100 µM (inactive)
GI50 [18]: > 100 µM (inactive)
GI50 [19]: > 100 µM (inactive)
GI50 [55]: > 100 µM (inactive)
GI50 [21]: > 100 µM (inactive)
GI50 [23]: > 100 µM (inactive)
GI50 [24]: > 100 µM (inactive)
GI50 [25]: > 100 µM (inactive)
GI50 [26]: > 100 µM (inactive)
GI50 [27]: > 100 µM (inactive)
GI50 [28]: 48.8 µM (inactive)
GI50 [31]: > 100 µM (inactive)
GI50 [33]: > 100 µM (inactive)
GI50 [35]: > 100 µM (inactive)
GI50 [36]: > 100 µM (inactive)
GI50 [37]: > 100 µM (inactive)
GI50 [38]: > 100 µM (inactive)
GI50 [39]: > 100 µM
GI50 [40]: > 100 µM (inactive)
GI50 [41]: > 100 µM (inactive)
GI50 [43]: > 100 µM (inactive)
GI50 [45]: > 100 µM (inactive)
GI50 [46]: > 100 µM (inactive)
GI50 [47]: > 100 µM (inactive)
GI50 [49]: > 100 µM (inactive)
GI50 [50]: > 100 µM (inactive)
GI50 [57]: > 100 µM (inactive)
GI50 [53]: > 100 µM (inactive)
